Reference: patent publication US6355799B1, “Substituted benzene compounds, process for their preparation, and herbicidal and defoliant compositions containing them” (ISK Americas Incorporated, priority 1997, dated 2002)

Tests used:
Format in all cases: in vivo
[1] = system: barnyardgrass (Echinochloa crus-galli, ECHCG); test: Post-emerge test, greenhouse herbicide activity screening; conditions: post-emerge, 14 days after application, rating scale 0-100
Outline: (§1)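 Rating: 0–100 visual injury, 14 DAA. Application: acetone, 187 l/ha, 15–1000 g ai/ha, flat-fan track sprayer with nozzle 40–45 cm above soil or canopy. Post-emerge runs used 0.25% v/v surfactant on 2–3 leaf plants.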

[2] = system: johnsongrass (Sorghum halepense, SORHA); test: as above; conditions: post-emerge, 14 days after application, rating scale 0-100
Outline: as §1

[3] = system: large crabgrass (Digitaria sanguinalis, DIGSA); test: as above; conditions: post-emerge, 14 days after application, rating scale 0-100
Outline: as §1

[4] = system: sicklepod (Cassia obtusifolia, CASOB); test: as above; conditions: post-emerge, 14 days after application, rating scale 0-100
Outline: as §1

[5] = system: velvetleaf (Abutilon theophrasti, ABUTH); test: as above; conditions: post-emerge, 14 days after application, rating scale 0-100
Outline: as §1

[6] = system: lambsquarters (Chenopodium album, CHEAL); test: as above; conditions: post-emerge, 14 days after application, rating scale 0-100
Outline: as §1

[7] = system: ivyleaf morningglory (Ipomoea hederacea, IPOHE); test: as above; conditions: post-emerge, 14 days after application, rating scale 0-100
Outline: as §1

[8] = system: green foxtail (Setaria viridis, SETVI); test: as above; conditions: post-emerge, 14 days after application, rating scale 0-100
Outline: as §1

[9] = system: redroot pigweed (Amaranthus retroflexus, AMARE); test: as above; conditions: post-emerge, 14 days after application, rating scale 0-100
Outline: as §1

[10] = system: barnyardgrass (Echinochloa crus-galli, ECHCG); test: Pre-emerge test, greenhouse herbicide activity screening; conditions: rated 14 days after application, 0 = no damage, 100 = complete death
Outline: (§2)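 Compounds in acetone were track-sprayed at 187 l/ha, 15–1000 g ai/ha, onto sandy loam pots. Pre-emerge seeds were sown one day before spraying, with surface watering afterwards. Post-emerge plants were at the 2–3 leaf stage and sprayed with 0.25% v/v non-ionic surfactant. Injury was rated 0–100 at 14 days.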

[11] = system: johnsongrass (Sorghum halepense, SORHA); test: as above; conditions: rated 14 days after application, 0 = no damage, 100 = complete death
Outline: as §2

[12] = system: large crabgrass (Digitaria sanguinalis, DIGSA); test: as above; conditions: rated 14 days after application, 0 = no damage, 100 = complete death
Outline: as §2

[13] = system: sicklepod (Cassia obtusifolia, CASOB); test: as above; conditions: rated 14 days after application, 0 = no damage, 100 = complete death
Outline: as §2

[14] = system: velvetleaf (Abutilon theophrasti, ABUTH); test: as above; conditions: rated 14 days after application, 0 = no damage, 100 = complete death
Outline: as §2

[15] = system: lambsquarters (Chenopodium album, CHEAL); test: as above; conditions: rated 14 days after application, 0 = no damage, 100 = complete death
Outline: as §2

[16] = system: ivyleaf morningglory (Ipomoea hederacea, IPOHE); test: as above; conditions: rated 14 days after application, 0 = no damage, 100 = complete death
Outline: as §2

[17] = system: green foxtail (Setaria viridis, SETVI); test: as above; conditions: rated 14 days after application, 0 = no damage, 100 = complete death
Outline: as §2

[18] = system: field corn (Zea mays L., var. Dekalb 535, CORN); test: Pre-emerge test, crop safety; conditions: rated 14 days after application, 0 = no damage, 100 = complete death
Outline: (§3)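 Herbicidal damage is scored 0 (none) to 100 (complete plant death) two weeks after a simulated field spray. Rates span 15–1000 g ai/ha, delivered in acetone at 187 l/ha. For post-emergence treatments, plants have 2–3 leaves and the spray carries 0.25% v/v non-ionic surfactant.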

[19] = system: upland rice (Oryza sp., var. Tebonnet, RICE); test: Pre-emerge test, crop safety; conditions: rated 14 days after application, 0 = no damage, 100 = complete death
Outline: as §3

[20] = system: redroot pigweed (Amaranthus retroflexus, AMARE); test: Pre-emerge test, greenhouse herbicide activity screening; conditions: rated 14 days after application, 0 = no damage, 100 = complete death
Outline: as §1

[21] = system: field corn (Zea mays L., var. Dekalb 535, CORN); test: Post-emerge test, crop safety; conditions: post-emerge, 14 days after application, rating scale 0-100
Outline: as §2

[22] = system: upland rice (Oryza sp., var. Tebonnet, RICE); test: Post-emerge test, crop safety; conditions: post-emerge, 14 days after application, rating scale 0-100
Outline: as §2

COc1c(Cl)cc(F)c(-n2c(=O)cc(C(F)(F)F)n(C)c2=O)c1NC(=O)C(=O)c1ccccc1 [2-121]
phytotoxicity rating ECHCG ([1]; 63 g ai/ha): 0
phytotoxicity rating ECHCG ([1]; 250 g ai/ha): 0
phytotoxicity rating SORHA ([2]; 63 g ai/ha): 0
phytotoxicity rating SORHA ([2]; 250 g ai/ha): 10
phytotoxicity rating DIGSA ([3]; 63 g ai/ha): 0
phytotoxicity rating DIGSA ([3]; 250 g ai/ha): 10
phytotoxicity rating CASOB ([4]; 63 g ai/ha): 10
phytotoxicity rating CASOB ([4]; 250 g ai/ha): 60
phytotoxicity rating ABUTH ([5]; 63 g ai/ha): 70
phytotoxicity rating ABUTH ([5]; 250 g ai/ha): 100
phytotoxicity rating CHEAL ([6]; 63 g ai/ha): 60
phytotoxicity rating CHEAL ([6]; 250 g ai/ha): 80
phytotoxicity rating IPOHE ([7]; 63 g ai/ha): 100
phytotoxicity rating IPOHE ([7]; 250 g ai/ha): 100
phytotoxicity rating SETVI ([8]; 63 g ai/ha): 0
phytotoxicity rating SETVI ([8]; 250 g ai/ha): 20
phytotoxicity rating AMARE ([9]; 63 g ai/ha): 90
phytotoxicity rating AMARE ([9]; 250 g ai/ha): 100
Pre-emerge Herbicidal Activity, phytotoxicity rating (0-100), ECHCG ([10]; 63 g ai/ha): 0
Pre-emerge Herbicidal Activity, phytotoxicity rating (0-100), ECHCG ([10]; 250 g ai/ha): 0
Pre-emerge Herbicidal Activity, phytotoxicity rating (0-100), SORHA ([11]; 63 g ai/ha): 0
Pre-emerge Herbicidal Activity, phytotoxicity rating (0-100), SORHA ([11]; 250 g ai/ha): 0
Pre-emerge Herbicidal Activity, phytotoxicity rating (0-100), DIGSA ([12]; 63 g ai/ha): 0
Pre-emerge Herbicidal Activity, phytotoxicity rating (0-100), DIGSA ([12]; 250 g ai/ha): 30
Pre-emerge Herbicidal Activity, phytotoxicity rating (0-100), CASOB ([13]; 63 g ai/ha): 0
Pre-emerge Herbicidal Activity, phytotoxicity rating (0-100), CASOB ([13]; 250 g ai/ha): 50
Pre-emerge Herbicidal Activity, phytotoxicity rating (0-100), ABUTH ([14]; 63 g ai/ha): 100
Pre-emerge Herbicidal Activity, phytotoxicity rating (0-100), ABUTH ([14]; 250 g ai/ha): 100
Pre-emerge Herbicidal Activity, phytotoxicity rating (0-100), CHEAL ([15]; 63 g ai/ha): 80
Pre-emerge Herbicidal Activity, phytotoxicity rating (0-100), CHEAL ([15]; 250 g ai/ha): 100
Pre-emerge Herbicidal Activity, phytotoxicity rating (0-100), IPOHE ([16]; 63 g ai/ha): 0
Pre-emerge Herbicidal Activity, phytotoxicity rating (0-100), IPOHE ([16]; 250 g ai/ha): 90
Pre-emerge Herbicidal Activity, phytotoxicity rating (0-100), SETVI ([17]; 63 g ai/ha): 0
Pre-emerge Herbicidal Activity, phytotoxicity rating (0-100), SETVI ([17]; 250 g ai/ha): 60
Pre-emerge phytotoxicity rating (0-100), crop damage, CORN ([18]; 63 g ai/ha): 0
Pre-emerge phytotoxicity rating (0-100), crop damage, CORN ([18]; 250 g ai/ha): 10
Pre-emerge phytotoxicity rating (0-100), crop damage, RICE ([19]; 63 g ai/ha): 0
Pre-emerge phytotoxicity rating (0-100), crop damage, RICE ([19]; 250 g ai/ha): 0
Pre-emerge Herbicidal Activity, phytotoxicity rating (0-100), AMARE ([20]; 63 g ai/ha): 100
Pre-emerge Herbicidal Activity, phytotoxicity rating (0-100), AMARE ([20]; 250 g ai/ha): 100
phytotoxicity rating CORN ([21]; 63 g ai/ha): 10
phytotoxicity rating CORN ([21]; 250 g ai/ha): 20
phytotoxicity rating RICE ([22]; 63 g ai/ha): 15
phytotoxicity rating RICE ([22]; 250 g ai/ha): 25
